Read-outs that look alike come from different tables or passages of the source.
Legend:
Format in all cases: in vivo
[1] = system: Pyricularia oryzae (Rice); details: one or two days before inoculation
[2] = system: Plasmopara viticola (Vines); test: Foliar fungal disease test on plants: Plasmopara viticola (Vines); details: one or two days before inoculation
Protocol: (§1) The compounds were tested against a variety of foliar fungal diseases of plants. The technique employed was as follows.
(§2) The plants were grown in John Innes Potting Compost (No 1 or 2) in 4 cm diameter minipots. The test compounds were formulated either by bead milling with aqueous DISPERSOL T or as a solution in acetone or acetone/ethanol which was diluted to the required concentration immediately before use. […] The sprays were applied to maximum retention and the root drenches to a final concentration equivalent to approximately 40 ppm a.i. in dry soil. TWEEN 20 was added to give a final concentration of 0.05% when the sprays were applied to cereals.
(§3) For most of the tests the compounds were applied to the soil (roots) or to the foliage (by spraying) one or two days before the plant was inoculated with the disease. An exception was the test on Erysiphe graminis in which the plants were inoculated 24 hours before treatment. Foliar pathogens were applied by spray as zoosporangial suspensions onto the leaves of test plants. After inoculation, the plants were put into an appropriate environment to allow infection to proceed and then incubated until the disease was ready for assessment. The period between inoculation and assessment varied from four to fourteen days according to the disease and environment.
(§4) The disease level present (i.e. leaf area covered by actively sporulating disease) on each of the treated plants was recorded using the following assessment scale:
(§5) Each assessment was then expressed as a percentage of the level of disease present on the untreated control plants. This calculated value is referred to as a POCO (Percentage of Control) value. An example of a typical calculation is as follows:
(§6) Disease level on untreated control=90
(§7) Disese level on treated plant=30 [formula]
(§8) This calculated POCO value is then rounded to the nearest of the values in the 9-point assessment scale shown above. In this particular example, the POCO value would be rounded to 30. If the calculated POCO falls exactly mid-way between two of the points, it is rounded to the lower of the two values.

[3] = system: Phytophthora infestans (Tomatoes); details: one or two days before inoculation
[4] = system: Septoria nodorum (Wheat); test: Foliar fungal disease test on plants: Septoria nodorum (Wheat); details: one or two days before inoculation
Protocol: as §1, §2, §3, §4, §5, §6, §7, §8

[5] = system: Venturia inaequalis (Apples); test: Foliar fungal disease test on plants: Venturia inaequalis (Apples); details: one or two days before inoculation
Protocol: as §1, §2, §3, §4, §5, §6, §7, §8

[6] = system: Erysiphe graminis tritici (Wheat); test: Foliar fungal disease test on plants: Erysiphe graminis tritici (Wheat); details: plants inoculated 24 hours before treatment
Protocol: as §1, §2, §3, §4, §5, §6, §7, §8

[7] = system: Thanatephorus cucumeries (Rice); test: Foliar fungal disease test on plants: Thanatephorus cucumeries (Rice); details: one or two days before inoculation
Protocol: as §1, §2, §3, §4, §5, §6, §7, §8

[8] = system: Puccinia recondita (Wheat); test: Foliar fungal disease test on plants: Puccinia recondita (Wheat)
Protocol: as §1
The plants were grown in John Innes Potting Compost (No 1 or 2) in 4 cm diameter minipots. The test compounds were formulated either by bead milling with aqueous DISPERSOL T or as a solution in acetone or acetone/ethanol which was diluted to the required concentration immediately before use. The formulations (100 ppm active ingredient) were sprayed on to the foliage or applied to the roots of the plants in the soil. The sprays were applied to maximum retention and the root drenches to a final concentration equivalent to approximately 40 ppm a.i. in dry soil. TWEEN 20 was added to give a final concentration of 0.05% when the sprays were applied to cereals.
as §3, with “For most of the tests the compounds were applied to the soil (roots) or to the foliage (by spraying) one or two days before the plant was inoculated with the disease.” left out
as §4, §5, §6, §7, §8

[9] = 10 ppm foliar spray only, plants inoculated with Puccinia recondita 48 hours before treatment
[10] = 100 ppm a.i. foliar spray or root drench (approx. 40 ppm in dry soil)
[11] = 100 ppm a.i. foliar spray or root drench, plants inoculated with Puccinia recondita 48 hours before treatment

Compound	POCO (Percentage of Control) disease level, Pyricularia oryzae (Rice) ([1]; 10 ppm foliar spray only)	POCO (Percentage of Control) disease level, Plasmopara viticola (Vines) ([2]; 10 ppm foliar spray only)	POCO (Percentage of Control) disease level, Phytophthora infestans (Tomatoes) ([3]; 10 ppm foliar spray only)	POCO (Percentage of Control) disease level, Septoria nodorum (Wheat) ([4]; 10 ppm foliar spray only)	POCO (Percentage of Control) disease level, Venturia inaequalis (Apples) ([5]; 10 ppm foliar spray only)	POCO (Percentage of Control) disease level, Erysiphe graminis tritici (Wheat) ([6]; 10 ppm foliar spray only)	POCO (Percentage of Control) disease level, Thanatephorus cucumeries (Rice) ([7]; 10 ppm foliar spray only)	POCO (Percentage of Control) disease level, Puccinia recondita (Wheat) [8, 9]	POCO (Percentage of Control) disease level, Pyricularia oryzae (Rice) [1, 10]	POCO (Percentage of Control) disease level, Plasmopara viticola (Vines) [2, 10]	POCO (Percentage of Control) disease level, Phytophthora infestans (Tomatoes) [3, 10]	POCO (Percentage of Control) disease level, Septoria nodorum (Wheat) [4, 10]	POCO (Percentage of Control) disease level, Venturia inaequalis (Apples) [5, 10]	POCO (Percentage of Control) disease level, Erysiphe graminis tritici (Wheat) [6, 10]	POCO (Percentage of Control) disease level, Thanatephorus cucumeries (Rice) [7, 10]	POCO (Percentage of Control) disease level, Puccinia recondita (Wheat) [8, 11]	POCO (Percentage of Control) disease level, Puccinia recondita (Wheat) ([8]; 100 ppm a.i. foliar spray or root drench (approx. 40 ppm in dry soil), one or two days before inoculation)
COC=C(C(=O)OC)c1ccccc1COC(=O)N(C)c1ccccc1SC [21 (2)]	30 (30 = 20.1-30% disease present)	0 (0 = 0% disease present)	90 (90 and 94 = 60.1-100% disease present)	60 (60 = 30.1-60% disease present)	60 (60 = 30.1-60% disease present)	90 (90 and 94 = 60.1-100% disease present)	90 (90 and 94 = 60.1-100% disease present)	90+ (90 and 94 = 60.1-100% disease present)	–	–	–	–	–	–	–	–	–
COC=C(C(=O)OC)c1ccccc1COC(=O)N(C)c1ccc(F)c([N+](=O)[O-])c1 [105 (2)]	–	–	–	–	–	–	–	–	5 (5 = 3.1-5% disease present)	0 (0 = 0% disease present)	0 (0 = 0% disease present)	90 (90 and 94 = 60.1-100% disease present)	10 (10 = 5.1-10% disease present)	0 (0 = 0% disease present)	0 (0 = 0% disease present)	90+ (90 and 94 = 60.1-100% disease present)	–
COC=C(C(=O)OC)c1ccccc1COC(=O)N(C)c1cccc(F)c1 [8 (2)]	–	–	–	–	–	–	–	–	0 (0 = 0% disease present)	0 (0 = 0% disease present)	0 (0 = 0% disease present)	0 (0 = 0% disease present)	0 (0 = 0% disease present)	0 (0 = 0% disease present)	0 (0 = 0% disease present)	0+ (0 = 0% disease present)	–
COC=C(C(=O)OC)c1ccccc1COC(=O)N(C)c1ccc(F)cc1 [13 (2)]	–	–	–	–	–	–	–	–	0 (0 = 0% disease present)	0 (0 = 0% disease present)	0 (0 = 0% disease present)	0 (0 = 0% disease present)	0 (0 = 0% disease present)	0 (0 = 0% disease present)	0 (0 = 0% disease present)	0+ (0 = 0% disease present)	–
CO/C=C(/C(=O)OC)c1ccccc1COC(=O)NN1CCOCC1 [3 (133), (E)-methyl 3-methoxy-2-[2-(morpholinocarbamoyloxymethyl)phenyl]propenoate]	–	–	–	–	–	–	–	–	90 (90 and 94 = 60.1-100% disease present)	90 (90 and 94 = 60.1-100% disease present)	90 (90 and 94 = 60.1-100% disease present)	90 (90 and 94 = 60.1-100% disease present)	60 (60 = 30.1-60% disease present)	90 (90 and 94 = 60.1-100% disease present)	90 (90 and 94 = 60.1-100% disease present)	90+ (90 and 94 = 60.1-100% disease present)	–
COC=C(C(=O)OC)c1ccccc1COC(=O)Nc1ccc(F)c(Cl)c1 [104 (1)]	–	–	–	–	–	–	–	–	90 (90 and 94 = 60.1-100% disease present)	60 (60 = 30.1-60% disease present)	90 (90 and 94 = 60.1-100% disease present)	90 (90 and 94 = 60.1-100% disease present)	90 (90 and 94 = 60.1-100% disease present)	90 (90 and 94 = 60.1-100% disease present)	90 (90 and 94 = 60.1-100% disease present)	90+ (90 and 94 = 60.1-100% disease present)	–
CCN(C(=O)OCc1ccccc1C(=COC)C(=O)OC)c1ccc(F)c([N+](=O)[O-])c1 [105 (3)]	–	–	–	–	–	–	–	–	60 (60 = 30.1-60% disease present)	0 (0 = 0% disease present)	0 (0 = 0% disease present)	90 (90 and 94 = 60.1-100% disease present)	0 (0 = 0% disease present)	90 (90 and 94 = 60.1-100% disease present)	20 (20 and 24 = 10.1-20% disease present)	90+ (90 and 94 = 60.1-100% disease present)	–
CO/C=C(/Oc1ccccc1OC(=O)NC(=O)c1ccccc1)C(=O)OC [1 (17), (E)-methyl 2-[2-((benzoyl)carbamoyloxy)phenoxy]-3-methoxypropenoate]	–	–	–	–	–	–	–	–	94 (90 and 94 = 60.1-100% disease present)	24 (20 and 24 = 10.1-20% disease present)	24 (20 and 24 = 10.1-20% disease present)	94 (90 and 94 = 60.1-100% disease present)	0 (0 = 0% disease present)	94 (90 and 94 = 60.1-100% disease present)	–	–	24 (20 and 24 = 10.1-20% disease present)
COC=C(C(=O)OC)c1ccccc1COC(=O)Nc1cccc(SC)c1 [10 (1)]	–	90 (90 and 94 = 60.1-100% disease present)	90 (90 and 94 = 60.1-100% disease present)	90 (90 and 94 = 60.1-100% disease present)	0 (0 = 0% disease present)	90 (90 and 94 = 60.1-100% disease present)	90 (90 and 94 = 60.1-100% disease present)	90+ (90 and 94 = 60.1-100% disease present)	–	–	–	–	–	–	–	–	–
CCN(C(=O)OCc1ccccc1C(=COC)C(=O)OC)c1ccc(F)c(Cl)c1 [104 (3)]	–	–	–	–	–	–	–	–	–	0 (0 = 0% disease present)	10 (10 = 5.1-10% disease present)	10 (10 = 5.1-10% disease present)	0 (0 = 0% disease present)	0 (0 = 0% disease present)	0 (0 = 0% disease present)	0+ (0 = 0% disease present)	–

Reference: patent publication US6465457B1 (priority 1991, dated 2002)
